Assays:
in vivo [1] = conditions: rat, plasma, iv
[2] = Oral bioavailability in rat; assay type: ADME, organism-based; conditions: in vivo
in vivo [3] = conditions: rat, plasma, po
in vivo [4] = conditions: rat, plasma, po, 10 mg/kg
in vivo [5] = conditions: rat, plasma, po; remark: listed apart in the source
Rattus norvegicus = organism: Rattus norvegicus; experiment: Plasma T1/2 in rat; assay type: ADME, organism-based; conditions: in vivo

CC(C)c1nc(CN(C)C(=O)NC(C(=O)N[C@@H](Cc2ccccc2)C[C@H](O)[C@H](Cc2ccccc2)NC(=O)OCc2cccnc2)C(C)C)co1 (some centres undefined)
half-life (in vivo [1]): 13.2 min
bioavailability [2]: 18%
AUC (in vivo [3]): 1100 ng·h/mL
Cmax (in vivo [4]): 2130 nM
Tmax (in vivo [5]): 15 min

CC(C)C(NC(=O)OCc1ccccn1)C(=O)N[C@@H](Cc1ccccc1)[C@@H](O)C[C@H](Cc1ccccc1)NC(=O)OCc1ccoc1 (some centres undefined)
T1/2 (Rattus norvegicus): Not soluble
AUC (in vivo [3]): 230 ng·h/mL
Cmax (in vivo [4]): 250 nM
Tmax (in vivo [5]): 16.8 min

CC(C)C(NC(=O)OCc1csc(N2CCOCC2)n1)C(=O)N[C@@H](Cc1ccccc1)C[C@H](O)[C@H](Cc1ccccc1)NC(=O)OCc1cncs1 (some centres undefined)
T1/2 (Rattus norvegicus): Not soluble
AUC (in vivo [3]): 40 ng·h/mL
Cmax (in vivo [4]): 170 nM
Tmax (in vivo [5]): 6 min

CC(C)C(NC(=O)OCc1csc(N2CCOCC2)n1)C(=O)N[C@@H](Cc1ccccc1)[C@@H](O)C[C@H](Cc1ccccc1)NC(=O)OCc1cncs1 (some centres undefined)
T1/2 (Rattus norvegicus): Not soluble

Cc1ncsc1CCOC(=O)NC(C(=O)N[C@@H](Cc1ccccc1)C[C@H](O)[C@H](Cc1ccccc1)NC(=O)OCc1cccnc1)C(C)C (some centres undefined)
T1/2 (Rattus norvegicus): Not soluble
AUC (in vivo [3]): 1530 ng·h/mL
Cmax (in vivo [4]): 960 nM

Cc1cncc(COC(=O)NC(C(=O)N[C@@H](Cc2ccccc2)C[C@H](O)[C@H](Cc2ccccc2)NC(=O)OCc2cccnc2)C(C)C)n1 (some centres undefined)
half-life (in vivo [1]): 69 min
bioavailability [2]: 10%
AUC (in vivo [3]): 640 ng·h/mL
Cmax (in vivo [4]): 1330 nM
Tmax (in vivo [5]): 6 min

CC(C)C(NC(=O)OCc1nccs1)C(=O)N[C@@H](Cc1ccccc1)[C@@H](O)C[C@H](Cc1ccccc1)NC(=O)OCc1cccnc1 (some centres undefined)
half-life (in vivo [1]): 32.4 min
bioavailability [2]: 35%
AUC (in vivo [3]): 2050 ng·h/mL
Cmax (in vivo [4]): 3330 nM
Tmax (in vivo [5]): 10.8 min

CC(C)c1nc(CN(C(=O)NCCC(=O)N[C@@H](Cc2ccccc2)[C@@H](O)C[C@H](Cc2ccccc2)NC(=O)OCc2cncs2)C2CC2)cs1
half-life (in vivo [1]): 20.4 min
bioavailability [2]: 9.4%
AUC (in vivo [3]): 400 ng·h/mL
Cmax (in vivo [4]): 650 nM
Tmax (in vivo [5]): 16.8 min

CC(C)C(NC(=O)OCc1ccccn1)C(=O)N[C@@H](Cc1ccccc1)[C@@H](O)C[C@H](Cc1ccccc1)NC(=O)OCc1cncs1 (some centres undefined)
T1/2 (Rattus norvegicus): Not soluble
AUC (in vivo [3]): 1490 ng·h/mL
Cmax (in vivo [4]): 2980 nM
Tmax (in vivo [5]): 8.4 min

CC(C)c1nc(COC(=O)NC(C(=O)N[C@@H](Cc2ccccc2)C[C@H](O)[C@H](Cc2ccccc2)NC(=O)OCc2cccnc2)C(C)C)cs1 (some centres undefined)
half-life (in vivo [1]): 14.4 min
bioavailability [2]: 1.6%
AUC (in vivo [3]): 50 ng·h/mL
Cmax (in vivo [4]): 210 nM
Tmax (in vivo [5]): 6 min

CCN(Cc1csc(C(C)C)n1)C(=O)NC(C(=O)N[C@@H](Cc1ccccc1)C[C@H](O)[C@H](Cc1ccccc1)NC(=O)OCc1cncs1)C(C)C (some centres undefined)
T1/2 (Rattus norvegicus): Not soluble
AUC (in vivo [3]): 9850 ng·h/mL
Cmax (in vivo [4]): 3330 nM
Tmax (in vivo [5]): 228 min

CC(C)C(NC(=O)N(C)Cc1ccccn1)C(=O)N[C@@H](Cc1ccccc1)C[C@H](O)[C@H](Cc1ccccc1)NC(=O)OCc1cncnc1 (some centres undefined)
half-life (in vivo [1]): 52.2 min
bioavailability [2]: 5.1%
AUC (in vivo [3]): 220 ng·h/mL
Cmax (in vivo [4]): 910 nM
Tmax (in vivo [5]): 18 min

Cc1cccc(COC(=O)NC(C(=O)N[C@@H](Cc2ccccc2)C[C@H](O)[C@H](Cc2ccccc2)NC(=O)OCc2ccoc2)C(C)C)n1 (some centres undefined)
T1/2 (Rattus norvegicus): Not soluble
AUC (in vivo [3]): 20 ng·h/mL
Cmax (in vivo [4]): 160 nM
Tmax (in vivo [5]): 8.4 min

CCN(Cc1csc(C(C)C)n1)C(=O)NC(C)C(=O)N[C@@H](Cc1ccccc1)C[C@H](O)[C@H](Cc1ccccc1)NC(=O)OCc1cncs1 (some centres undefined)
T1/2 (Rattus norvegicus): Not soluble
bioavailability [2]: 0%

COCc1ncc(COC(=O)NC(C(=O)N[C@@H](Cc2ccccc2)C[C@H](O)[C@H](Cc2ccccc2)NC(=O)OCc2cccnc2)C(C)C)s1 (some centres undefined)
half-life (in vivo [1]): 16.2 min
bioavailability [2]: 0.6%
AUC (in vivo [3]): 20 ng·h/mL
Cmax (in vivo [4]): 120 nM
Tmax (in vivo [5]): 6 min

Cc1ncc(CN(C)C(=O)NC(C(=O)N[C@@H](Cc2ccccc2)[C@@H](O)C[C@H](Cc2ccccc2)NC(=O)OCc2cccnc2)C(C)C)nc1C (some centres undefined)
half-life (in vivo [1]): 18 min
bioavailability [2]: 17%
AUC (in vivo [3]): 550 ng·h/mL
Cmax (in vivo [4]): 1520 nM
Tmax (in vivo [5]): 9 min

CC(C)C(NC(=O)N(C)Cc1cscn1)C(=O)N[C@@H](Cc1ccccc1)[C@@H](O)C[C@H](Cc1ccccc1)NC(=O)OCc1cccnc1 (some centres undefined)
half-life (in vivo [1]): 84 min
bioavailability [2]: 35%
AUC (in vivo [3]): 1660 ng·h/mL
Cmax (in vivo [4]): 3130 nM
Tmax (in vivo [5]): 22.2 min

CC(C)c1nc(CCOC(=O)NC(C(=O)N[C@@H](Cc2ccccc2)[C@@H](O)C[C@H](Cc2ccccc2)NC(=O)OCc2cncs2)C(C)C)cs1 (some centres undefined)
T1/2 (Rattus norvegicus): Not soluble
bioavailability [2]: 0%

CC(C)c1nc(COC(=O)NC(C(=O)N[C@@H](Cc2ccccc2)[C@@H](O)C[C@H](Cc2ccccc2)NC(=O)OCc2cncs2)C(C)C)cs1 (some centres undefined)
T1/2 (Rattus norvegicus): Not soluble
bioavailability [2]: 0%

CC(C)c1nc(COC(=O)NC(C(=O)N[C@@H](Cc2ccccc2)C[C@H](O)[C@H](Cc2ccccc2)NC(=O)OCc2cncs2)C(C)C)cs1 (some centres undefined)
T1/2 (Rattus norvegicus): Not soluble
AUC (in vivo [3]): 10 ng·h/mL
Cmax (in vivo [4]): 40 nM
Tmax (in vivo [5]): 6 min
